Structures can show the parent of a compound that is named as a salt. Where two headings read alike, the source gives them in different places.
What was measured:
Format in all cases: cell-based
[1] = system: K. pneumoniae clinical isolate (strain 3); assay: MIC by broth microdilution (alone and in combination with meropenam), strain 3; conditions: for MIC: Klebsiella pneumoniae, compound alone
Procedure: (§1) Compounds of the present invention alone, meropenam (MER) alone, and as a combination with test antibiotic (meropenam) were tested for antimicrobial activity by determing minimum inhibitory concentration (MIC, mg/L) using the broth microdilution method according to the guidelines of the Clinical Laboratories and Stansards Insitute (“Methods for Dilution Antimicrobial Suscetibility Tests for Bacterial that Grow Aerobiclly”, Approved standard, […]., Clinical and Laboratories Stanards Institute (CLSI) Document M7-A8, Wayne, Pa., USA, 2009). Meropenam as a test antibiotic compound was dissolved in DMSO. Meropenam was then diluted in microbial growth medium (Mueller-Hinton Broth II, cation adjusted) resulting in a final concention range of 0.125-64 mg/L in serial two-fold dilution. In all cases the filnal DMSO concentraion was less than 0.5%. Bacteria were added to 96-well microtitre plates containing the serial two-fold dilutions of the compoumds; the final cell density was appoximately 5x10^5 colony forming units/mL (CFU/mL). Plates were incubated at 37° C. for 18-24 hours and read visually. The MIC, i.e. the lowest concentration of the test compound that inhibited visible growth of the bacteria, was recorded. The same assay conditions were used when the compounds of present invention alone, and as a combination with test meropenam antibiotic compound was tested for minmum inhibitory concentration (MIC, mg/L). Whileest meropenam was serially diluted as descrribed above, a constant concentration of the present invention of 4 µg/mL was used.
(§2) Bacterial strains that were used to evaluate the antimicrobial activity using the MIC determination included but were not limited to E. coli clinical isolate (strain 1), E. coli 8739 (strain 2), K. pneumoniae clinical isolate (strain 3), K. pneumoniae 700603 (strain 4), E. cloacae clinical isolate (strain 5), E. cloacae 700323 (strain 6), A. baumannii clinical isolate (strain 7), A. baumannii 19606 (strain 8), P. aeruginosa clinical isolate (strain 9), P. aeruginosa 9027 (strain 10).

[2] = system: P. aeruginosa clinical isolate (strain 9); assay: MIC by broth microdilution (alone and in combination with meropenam), strain 9; conditions: for MIC: Pseudomonas aeruginosa, compound alone
Procedure: as §1, §2

[3] = system: E. cloacae clinical isolate (strain 5); assay: MIC by broth microdilution (alone and in combination with meropenam), strain 5; conditions: for MIC: Enterobacter cloacae, compound alone
Procedure: as §1, §2

[4] = system: E. coli clinical isolate (strain 1); assay: MIC by broth microdilution (alone and in combination with meropenam), strain 1; conditions: for MIC: Escherichia coli, compound alone
Procedure: as §1, §2

[5] = system: E. coli 8739 (strain 2); assay: MIC by broth microdilution (alone and in combination with meropenam), strain 2; conditions: for MIC: Escherichia coli, compound alone
Procedure: as §1, §2

[6] = system: P. aeruginosa 9027 (strain 10); assay: MIC by broth microdilution (alone and in combination with meropenam), strain 10; conditions: for MIC: Pseudomonas aeruginosa, compound alone
Procedure: as §1, §2

[7] = system: E. cloacae 700323 (strain 6); assay: MIC by broth microdilution (alone and in combination with meropenam), strain 6; conditions: for MIC: Enterobacter cloacae, compound alone
Procedure: as §1, §2

[8] = system: K. pneumoniae 700603 (strain 4); assay: MIC by broth microdilution (alone and in combination with meropenam), strain 4; conditions: for MIC: Klebsiella pneumoniae, compound alone
Procedure: as §1, §2

[9] = system: A. baumannii clinical isolate (strain 7); assay: MIC by broth microdilution (alone and in combination with meropenam), strain 7; conditions: for MIC: Acinetobacter baumannii, compound alone
Procedure: as §1, §2

[10] = system: A. baumannii 19606 (strain 8); assay: MIC by broth microdilution (alone and in combination with meropenam), strain 8; conditions: for MIC: Acinetobacter baumannii, compound alone
Procedure: as §1, §2

[11] = read-out: MIC, antibacterial activity of example alone

N=C(NC(=O)c1ccncn1)[C@@H]1CC[C@@H]2CN1C(=O)N2OS(=O)(=O)[O-].[Na+] [Ex.48, Sodium (2S,5R)-7-oxo-2-(N-(pyrimidine-4-carbonyl)carbamimidoyl)-1,6-diazabicyclo[3.2.1]octan-6-yl Sulfate]
> 64 µg/mL: MIC ([1]; read-out: MIC) | MIC ([2]; read-out: MIC) | MIC ([3]; read-out: MIC) | MIC ([4]; read-out: MIC) | MIC ([5]; read-out: MIC) | MIC ([6]; read-out: MIC) | MIC ([7]; read-out: MIC) | MIC ([8]; read-out: MIC) | MIC ([9]; read-out: MIC) | MIC ([10]; read-out: MIC)

C[C@@H](O)[C@H]1C(=O)N2C(C(=O)O)=C(S[C@@H]3CN[C@H](C(=O)N(C)C)C3)[C@H](C)[C@H]12 [MER, meropenam, reference compound]
1.0 µg/mL: MIC, MER Alone ([8]; meropenam alone) | MIC, MER Alone ([10]; meropenam alone)
2.0 µg/mL: MIC, MER Alone ([1]; meropenam alone) | MIC, MER Alone ([2]; meropenam alone) | MIC, MER Alone ([3]; meropenam alone) | MIC, MER Alone ([4]; meropenam alone) | MIC, MER Alone ([5]; meropenam alone) | MIC, MER Alone ([6]; meropenam alone) | MIC, MER Alone ([7]; meropenam alone) | MIC, MER Alone ([9]; meropenam alone)

N=C(NC(=O)CN1CCCCC1)[C@@H]1CC[C@@H]2CN1C(=O)N2OS(=O)(=O)[O-].[Na+] [Ex.35, Sodium (2S,5R)-7-oxo-2-(N-(2-(piperidin-1-yl)acetyl)carbamimidoyl)-1,6-diazabicyclo[3.2.1]octan-6-yl Sulfate]
> 64 µg/mL: MIC [1, 11] | MIC [2, 11] | MIC [3, 11] | MIC [4, 11] | MIC [5, 11] | MIC [6, 11] | MIC [7, 11] | MIC [8, 11] | MIC [9, 11] | MIC [10, 11]

N=C(NC(=O)c1ccccc1)[C@@H]1CC[C@@H]2CN1C(=O)N2OS(=O)(=O)O [Ex.2, (2S,5R)-2-(N-benzoylcarbamimidoyl)-7-oxo-1,6-diazabicyclo[3.2.1]octan-6-yl Hydrogen Sulfate]
> 64 µg/mL: MIC [1, 11] | MIC [2, 11] | MIC [3, 11] | MIC [4, 11] | MIC [5, 11] | MIC [6, 11] | MIC [7, 11] | MIC [8, 11] | MIC [9, 11] | MIC [10, 11]

N=C(NC(=O)C1CCCCC1)[C@@H]1CC[C@@H]2CN1C(=O)N2OS(=O)(=O)[O-].[Na+] [Ex.37, Sodium (2S,5R)-2-(N-(cyclohexanecarbonyl)carbamimidoyl)-7-oxo-1,6-diazabicyclo[3.2.1]octan-6-yl Sulfate]
> 64 µg/mL: MIC [1, 11] | MIC [2, 11] | MIC [3, 11] | MIC [4, 11] | MIC [5, 11] | MIC [6, 11] | MIC [7, 11] | MIC [8, 11] | MIC [9, 11] | MIC [10, 11]

N#Cc1ccc(C(=O)NC(=N)[C@@H]2CC[C@@H]3CN2C(=O)N3OS(=O)(=O)[O-])cc1.[Na+] [Ex.45, Sodium (2S,5R)-2-(N-(4-cyanobenzoyl)carbamimidoyl)-7-oxo-1,6-diazabicyclo[3.2.1]octan-6-yl Sulfate]
> 64 µg/mL: MIC ([1]; read-out: MIC) | MIC ([2]; read-out: MIC) | MIC ([3]; read-out: MIC) | MIC ([4]; read-out: MIC) | MIC ([5]; read-out: MIC) | MIC ([6]; read-out: MIC) | MIC ([7]; read-out: MIC) | MIC ([8]; read-out: MIC) | MIC ([9]; read-out: MIC) | MIC ([10]; read-out: MIC)

CN1CCC(C(=O)NC(=N)[C@@H]2CC[C@@H]3CN2C(=O)N3OS(=O)(=O)[O-])CC1.[Na+] [Ex.41, Sodium (2S,5R)-2-(N-(1-methylpiperidine-4-carbonyl)carbamimidoyl)-7-oxo-1,6-diazabicyclo[3.2.1]octan-6-yl Sulfate]
> 64 µg/mL: MIC [1, 11] | MIC [2, 11] | MIC [3, 11] | MIC [4, 11] | MIC [5, 11] | MIC [6, 11] | MIC [7, 11] | MIC [8, 11] | MIC [9, 11] | MIC [10, 11]

Reference: patent US20230365561A1, “BETA-LACTAMASE INHIBITORS AND THEIR PREPARATION” (NINGXIA ACADEMY OF AGRICUL TURE AND FORESTRY SCIENCES, priority 2020, published 2023)
